# Measured values published in PubChem BioAssay (NCI).
#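 Here, GI50 denotes the concentration required for 50% inhibition of growth. Definition used: TGI = concentration required for complete inhibition of growth.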
# Columns and labels:
# Assay in all cases: NCI tumour cell line growth inhibition, 384-well format
# U251 glioblastoma = system: U251 glioblastoma
# HL-60(TB) leukemia = system: HL-60(TB) leukemia
# M14 melanoma = system: M14 melanoma
# UACC-62 melanoma = system: UACC-62 melanoma
# SN12C renal = system: SN12C renal
# NCI-H226 lung = system: NCI-H226 lung
# SNB-75 CNS = system: SNB-75 CNS
# IGROV1 ovarian = system: IGROV1 ovarian
# RXF 393 renal = system: RXF 393 renal
# NCI-H23 lung = system: NCI-H23 lung
# HCT-116 colon = system: HCT-116 colon
# PC-3 prostate = system: PC-3 prostate
# TK-10 renal = system: TK-10 renal
# MDA-MB-468 breast = system: MDA-MB-468 breast
# HS 578T breast = system: HS 578T breast
# MOLT-4 leukemia = system: MOLT-4 leukemia
# OVCAR-3 ovarian = system: OVCAR-3 ovarian
# HOP-92 NSCLC = system: HOP-92 NSCLC
# SF-539 CNS = system: SF-539 CNS
# 786-0 renal = system: 786-0 renal
# DU-145 prostate = system: DU-145 prostate
# NCI-H460 NSCLC = system: NCI-H460 NSCLC
# EKVX NSCLC = system: EKVX NSCLC
# SK-OV-3 ovarian = system: SK-OV-3 ovarian
# A549 NSCLC = system: A549 NSCLC
# CCRF-CEM leukemia = system: CCRF-CEM leukemia
# LOX IMVI melanoma = system: LOX IMVI melanoma
# RPMI-8226 leukemia = system: RPMI-8226 leukemia
# OVCAR-4 ovarian = system: OVCAR-4 ovarian
# MALME-3M melanoma = system: MALME-3M melanoma
# BT-549 breast = system: BT-549 breast
# SNB-19 CNS = system: SNB-19 CNS
# NCI-H522 lung = system: NCI-H522 lung
# K-562 leukemia = system: K-562 leukemia
# ACHN renal = system: ACHN renal
# HCT-15 colon = system: HCT-15 colon
# HT29 colon = system: HT29 colon
# NCI/ADR-RES ovarian = system: NCI/ADR-RES ovarian
# HOP-62 NSCLC = system: HOP-62 NSCLC
# SF-268 CNS = system: SF-268 CNS
# NCI-H322M lung = system: NCI-H322M lung
# COLO 205 colon = system: COLO 205 colon
# SF-295 CNS = system: SF-295 CNS
# MCF7 breast = system: MCF7 breast
# OVCAR-8 ovarian = system: OVCAR-8 ovarian
# SK-MEL-2 melanoma = system: SK-MEL-2 melanoma
# MDA-MB-435 melanoma = system: MDA-MB-435 melanoma
# SK-MEL-5 melanoma = system: SK-MEL-5 melanoma
# UACC-257 melanoma = system: UACC-257 melanoma
# A498 renal = system: A498 renal
# SW-620 colon = system: SW-620 colon
# HCC-2998 colon = system: HCC-2998 colon
# KM12 colon = system: KM12 colon
# SK-MEL-28 melanoma = system: SK-MEL-28 melanoma
# CAKI-1 renal = system: CAKI-1 renal
smiles,measurement,setting,value
CC(C)N=C(N)/N=C(\N)Nc1ccc2ccc3ccccc3c2c1,GI50,U251 glioblastoma,1.79 µM
same,TGI,U251 glioblastoma,3.19 µM
same,GI50,HL-60(TB) leukemia,1.41 µM
same,TGI,HL-60(TB) leukemia,2.72 µM
same,GI50,M14 melanoma,1.89 µM
same,TGI,M14 melanoma,3.3 µM
same,GI50,UACC-62 melanoma,1.49 µM
same,TGI,UACC-62 melanoma,2.83 µM
same,GI50,SN12C renal,1.65 µM
same,TGI,SN12C renal,3.02 µM
same,GI50,NCI-H226 lung,1.64 µM
same,TGI,NCI-H226 lung,3.01 µM
same,GI50,SNB-75 CNS,1.61 µM
same,TGI,SNB-75 CNS,2.96 µM
same,GI50,IGROV1 ovarian,1.02 µM
same,TGI,IGROV1 ovarian,2.21 µM
same,GI50,RXF 393 renal,1.58 µM
same,TGI,RXF 393 renal,2.93 µM
same,GI50,NCI-H23 lung,1.53 µM
same,TGI,NCI-H23 lung,2.86 µM
same,GI50,HCT-116 colon,1.71 µM
same,TGI,HCT-116 colon,3.14 µM
same,GI50,PC-3 prostate,1.52 µM
same,TGI,PC-3 prostate,2.87 µM
same,GI50,TK-10 renal,1.73 µM
same,TGI,TK-10 renal,3.11 µM
same,GI50,MDA-MB-468 breast,0.242 µM
same,TGI,MDA-MB-468 breast,1.47 µM
same,GI50,HS 578T breast,1.72 µM
same,TGI,HS 578T breast,3.1 µM
same,GI50,MOLT-4 leukemia,1.36 µM
same,TGI,MOLT-4 leukemia,2.65 µM
same,GI50,OVCAR-3 ovarian,1.6 µM
same,TGI,OVCAR-3 ovarian,2.95 µM
same,GI50,HOP-92 NSCLC,1.56 µM
same,TGI,HOP-92 NSCLC,2.9 µM
same,GI50,SF-539 CNS,1.74 µM
same,TGI,SF-539 CNS,3.13 µM
same,GI50,786-0 renal,1.75 µM
same,TGI,786-0 renal,3.14 µM
same,GI50,DU-145 prostate,1.79 µM
same,TGI,DU-145 prostate,3.23 µM
same,GI50,NCI-H460 NSCLC,1.75 µM
same,TGI,NCI-H460 NSCLC,3.17 µM
same,GI50,EKVX NSCLC,1.66 µM
same,TGI,EKVX NSCLC,3.06 µM
same,GI50,SK-OV-3 ovarian,1.42 µM
same,TGI,SK-OV-3 ovarian,2.73 µM
same,GI50,A549 NSCLC,1.73 µM
same,TGI,A549 NSCLC,3.14 µM
same,GI50,CCRF-CEM leukemia,1.44 µM
same,TGI,CCRF-CEM leukemia,2.77 µM
same,GI50,LOX IMVI melanoma,1.56 µM
same,TGI,LOX IMVI melanoma,2.92 µM
same,GI50,RPMI-8226 leukemia,1.72 µM
same,TGI,RPMI-8226 leukemia,3.1 µM
same,GI50,OVCAR-4 ovarian,1.3 µM
same,TGI,OVCAR-4 ovarian,2.58 µM
same,GI50,MALME-3M melanoma,1.43 µM
same,TGI,MALME-3M melanoma,2.75 µM
same,GI50,BT-549 breast,1.49 µM
same,TGI,BT-549 breast,2.83 µM
same,GI50,SNB-19 CNS,1.76 µM
same,TGI,SNB-19 CNS,3.16 µM
same,GI50,NCI-H522 lung,1.56 µM
same,TGI,NCI-H522 lung,2.91 µM
same,GI50,K-562 leukemia,1.89 µM
same,TGI,K-562 leukemia,3.3 µM
same,GI50,ACHN renal,1.59 µM
same,TGI,ACHN renal,2.95 µM
same,GI50,HCT-15 colon,1.67 µM
same,TGI,HCT-15 colon,3.07 µM
same,GI50,HT29 colon,1.71 µM
same,TGI,HT29 colon,3.13 µM
same,GI50,NCI/ADR-RES ovarian,10 µM
same,TGI,NCI/ADR-RES ovarian,21.8 µM
same,GI50,HOP-62 NSCLC,2.07 µM
same,TGI,HOP-62 NSCLC,3.51 µM
same,GI50,SF-268 CNS,1.87 µM
same,TGI,SF-268 CNS,3.29 µM
same,GI50,NCI-H322M lung,1.84 µM
same,TGI,NCI-H322M lung,3.25 µM
same,GI50,COLO 205 colon,1.76 µM
same,TGI,COLO 205 colon,3.16 µM
same,GI50,SF-295 CNS,1.65 µM
same,TGI,SF-295 CNS,3.02 µM
same,GI50,MCF7 breast,0.507 µM
same,TGI,MCF7 breast,1.85 µM
same,GI50,OVCAR-8 ovarian,1.7 µM
same,TGI,OVCAR-8 ovarian,3.1 µM
same,GI50,SK-MEL-2 melanoma,1.84 µM
same,TGI,SK-MEL-2 melanoma,3.24 µM
same,GI50,MDA-MB-435 melanoma,1.73 µM
same,TGI,MDA-MB-435 melanoma,3.12 µM
same,GI50,SK-MEL-5 melanoma,1.11 µM
same,TGI,SK-MEL-5 melanoma,2.33 µM
same,GI50,UACC-257 melanoma,1.48 µM
same,TGI,UACC-257 melanoma,2.82 µM
same,GI50,A498 renal,1.56 µM
same,TGI,A498 renal,2.91 µM
same,GI50,SW-620 colon,1.8 µM
same,TGI,SW-620 colon,3.23 µM
same,GI50,HCC-2998 colon,1.4 µM
same,TGI,HCC-2998 colon,2.71 µM
same,GI50,KM12 colon,1.82 µM
same,TGI,KM12 colon,3.25 µM
same,GI50,SK-MEL-28 melanoma,1.85 µM
same,TGI,SK-MEL-28 melanoma,3.27 µM
same,GI50,CAKI-1 renal,1.48 µM
same,TGI,CAKI-1 renal,2.82 µM
